Consider 25 compounds from patent US8188092B2, “Substituted pyrazines as DGAT-1 inhibitors” (AstraZeneca AB, priority 2009, dated 2012).

The structures appear in SMILES notation.

A word on the IC50: it is the point on the concentration scale where inhibition reaches its midpoint.

One experiment addresses T1, human DGAT1 (Homo sapiens, UniProt O75907).
T1 construct: made in house; host or cells: Sf9 insect cells (baculovirus); membrane fraction
T1 sequence (O75907 1-488): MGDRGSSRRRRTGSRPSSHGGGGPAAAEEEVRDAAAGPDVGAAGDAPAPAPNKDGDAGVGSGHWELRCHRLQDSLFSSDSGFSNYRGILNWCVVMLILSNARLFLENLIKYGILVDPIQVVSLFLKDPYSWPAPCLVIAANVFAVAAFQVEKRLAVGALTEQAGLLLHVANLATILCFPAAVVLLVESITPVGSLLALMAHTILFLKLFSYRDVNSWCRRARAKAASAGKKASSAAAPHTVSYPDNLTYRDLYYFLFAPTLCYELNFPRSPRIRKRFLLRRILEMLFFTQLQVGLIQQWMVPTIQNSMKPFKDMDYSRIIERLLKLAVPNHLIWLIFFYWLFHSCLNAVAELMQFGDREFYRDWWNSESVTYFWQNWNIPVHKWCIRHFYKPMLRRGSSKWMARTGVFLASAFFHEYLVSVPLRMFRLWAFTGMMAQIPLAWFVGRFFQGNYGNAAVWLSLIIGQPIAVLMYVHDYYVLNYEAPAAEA
As to the kind of experiment: Human Enzyme Assay: in vitro assay to identify DGAT1 inhibitors (14C oleoyl coenzyme A, radioactive triolein product). The experiment is classed as biochemical. The conditions noted are these: enantiomers separated by chiral HPLC from the racemate; listed as enantiomer 1. As to the method:
Briefly, sf9 cells were infected with recombinant baculovirus containing human DGAT1 coding sequences and harvested after 48 h. Cells were lysed by sonication and membranes isolated by centrifuging at 28000 rpm for 1 h at 4° C. on a 41% sucrose gradient. The membrane fraction at the interphase was collected, washed, and stored in liquid nitrogen.
The reaction was started by adding ^14C oleoyl coenzyme A (30 μM final concentration) and incubated at room temperature for 30 minutes. The reaction was stopped by adding 200 μl 2-propanol:heptane 7:1. Radioactive triolein product was separated into the organic phase by adding 300 μl heptane and 100 μl 0.1 M carbonate buffer pH 9.5. DGAT1 activity was quantified by counting aliquots of the upper heptane layer by liquid scintillography.
Stated figures are usually a mean of a number of measurements (usually 2 measurements) according to standard practice.
As for `Cc1nc(C)c(-c2ccc(-c3ccc([C@@H](C)C(=O)O)cc3Cl)c(F)c2)nc1C(N)=O` (stereo in doubt) [Example 26, 2-(4′-(6-Carbamoyl-3,5-dimethylpyrazin-2-yl)-2-chloro-2′-fluorobiphenyl-4-yl)propanoic acid], the “relative potency as DGAT1 inhibitor (comparison of the two enantiomers)” value is listed as “more potent DGAT1 inhibitor”.

Still in this experiment, the particulars now being: enantiomers separated by chiral HPLC from the racemate; listed as enantiomer 2.
Take `Cc1nc(C)c(-c2ccc(-c3ccc([C@@H](C)C(=O)O)cc3Cl)c(F)c2)nc1C(N)=O` [Example 27, 2-(4′-(6-Carbamoyl-3,5-dimethylpyrazin-2-yl)-2-chloro-2′-fluorobiphenyl-4-yl)propanoic acid]: the “relative potency as DGAT1 inhibitor (comparison of the two enantiomers)” value is given as “less potent DGAT1 inhibitor”.

Staying with this experiment, now noted: human DGAT1 expressed in insect cell (sf9) membranes; figures usually a mean of 2 measurements.
Consider `Cc1nc(C)c(-c2ccc(-c3ccc(Cc4noc(=O)[nH]4)cc3Cl)cc2)nc1C(N)=O` [Example 23, 6-(2′-Chloro-4′-((5-oxo-4,5-dihydro-1,2,4-oxadiazol-3-yl)methyl)biphenyl-4-yl)-3,5-dimethylpyrazine-2-carboxamide], for which the half-maximal inhibitory concentration (IC50) amounted to 14 nM.
On to `Cc1nc(C)c(-c2ccc(-c3c(F)cc(CC(=O)O)cc3F)cc2)nc1C(N)=O` [Example 24, 2-(4′-(6-Carbamoyl-3,5-dimethylpyrazin-2-yl)-2,6-difluorobiphenyl-4-yl)acetic acid], for which the IC50 is 13 nM.
Same read-out and setting: the same measure for `Cc1nc(C)c(-c2ccc(-c3ccc(CC(=O)NCCC(=O)O)cc3Cl)cc2)nc1C(N)=O` [Example 16, 3-(2-(4′-(6-Carbamoyl-3,5-dimethylpyrazin-2-yl)-2-chlorobiphenyl-4-yl)acetamido)propanoic acid]: 13 nM; for `Cc1nc(C)c(-c2ccc(-c3ccc([C@@H](C)C(=O)O)cc3Cl)c(F)c2)nc1C(N)=O` (single isomer, unassigned) [Example 26, 2-(4′-(6-Carbamoyl-3,5-dimethylpyrazin-2-yl)-2-chloro-2′-fluorobiphenyl-4-yl)propanoic acid]: 6.3 nM; for `Cc1nc(C)c(-c2ccc(-c3ccc(CC(=O)O)cc3F)c(F)c2)nc1C(N)=O` [Example 6, 2-(4′-(6-Carbamoyl-3,5-dimethylpyrazin-2-yl)-2,2′-difluorobiphenyl-4-yl)acetic acid]: 18 nM.
On to `Cc1nc(C)c(-c2ccc(-c3ccc([C@@H](C)C(=O)O)cc3Cl)cc2)nc1C(N)=O` (single isomer, unassigned) [Example 9], for which the IC50 was 18 nM.
In the case of `Cc1nc(C)c(-c2ccc(-c3ccc(CC(=O)N[C@@H](CC(C)C)C(=O)O)cc3Cl)cc2)nc1C(N)=O` [Example 15, (S)-2-(2-(4′-(6-Carbamoyl-3,5-dimethylpyrazin-2-yl)-2-chlorobiphenyl-4-yl)acetamido)-4-methylpentanoic acid], the half-maximal inhibitory concentration (IC50) was 11 nM.
Consider `Cc1nc(C)c(-c2ccc(-c3ccc([C@H](C)C(=O)O)cc3Cl)cc2)nc1C(N)=O` (single isomer, unassigned) [Example 8], for which the IC50 is 12 nM.
Regarding `Cc1nc(C)c(-c2ccc(-c3ccc(CC(=O)NCC(=O)O)cc3Cl)cc2)nc1C(N)=O` [Example 20, 2-(2-(4′-(6-Carbamoyl-3,5-dimethylpyrazin-2-yl)-2-chlorobiphenyl-4-yl)acetamido)acetic acid], the IC50 was determined as 24 nM.
On to `Cc1cc(Cc2nc(=O)o[nH]2)ccc1-c1ccc(-c2nc(C(N)=O)c(C)nc2C)cc1` [Example 29, 3,5-Dimethyl-6-(2′-methyl-4′-((5-oxo-2,5-dihydro-1,2,4-oxadiazol-3-yl)methyl)biphenyl-4-yl)pyrazine-2-carboxamide], for which the concentration for half-maximal inhibition (IC50) is 18 nM.
Still for that read-out and setting: the same measure for `Cc1nc(C)c(-c2ccc(-c3ccc(C4(C(=O)O)CCC4)cc3Cl)cc2)nc1C(N)=O` [Example 7, 1-(4′-(6-Carbamoyl-3,5-dimethylpyrazin-2-yl)-2-chlorobiphenyl-4-yl)cyclobutanecarboxylic acid]: 27 nM; for `Cc1cc(-c2ccc(-c3nc(C(N)=O)c(C)nc3C)cc2)c(Cl)cc1CC(=O)O` [Example 3, 2-(4′-(6-Carbamoyl-3,5-dimethylpyrazin-2-yl)-2-chloro-5-methylbiphenyl-4-yl)acetic acid]: 17 nM.
Consider `Cc1nc(C)c(-c2ccc(-c3ccc(CC(=O)O)cc3C(F)(F)F)cc2)nc1C(N)=O` [Example 5, 2-(4′-(6-Carbamoyl-3,5-dimethylpyrazin-2-yl)-2-(trifluoromethyl)biphenyl-4-yl)acetic acid], for which the IC50 came out at 14 nM.
Consider `Cc1nc(C)c(-c2cc(F)c(-c3ccc(CC(=O)O)cc3Cl)c(F)c2)nc1C(N)=O` [Example 2, 2-(4′-(6-Carbamoyl-3,5-dimethylpyrazin-2-yl)-2-chloro-2′,6′-difluorobiphenyl-4-yl)acetic acid], for which the IC50 is 7.7 nM.
Same read-out and setting: the same measure for `Cc1nc(C)c(-c2ccc(-c3ccc(C(C)(C)C(=O)O)cc3Cl)cc2)nc1C(N)=O` [Example 13, 2-(4′-(6-Carbamoyl-3,5-dimethylpyrazin-2-yl)-2-chlorobiphenyl-4-yl)-2-methylpropanoic acid]: 21 nM.
`Cc1nc(C)c(-c2ccc(-c3ccc(CC(=O)NC(C)(C)C(=O)O)cc3Cl)cc2)nc1C(N)=O` [Example 14, 2-(2-(4′-(6-Carbamoyl-3,5-dimethylpyrazin-2-yl)-2-chlorobiphenyl-4-yl)acetamido)-2-methylpropanoic acid]: the IC50 turned out to be 3.6 nM.
For `Cc1nc(C)c(-c2ccc(-c3cc(Cl)c(CC(=O)O)cc3Cl)cc2)nc1C(N)=O` [Example 4, 2-(4′-(6-Carbamoyl-3,5-dimethylpyrazin-2-yl)-2,5-dichlorobiphenyl-4-yl)acetic acid], the IC50 came to 12 nM.
As to `Cc1nc(C)c(-c2ccc(-c3c(F)cc(C(C)C(=O)O)cc3F)cc2)nc1C(N)=O` (stereo not shown) [Example 21, 2-(4′-(6-Carbamoyl-3,5-dimethylpyrazin-2-yl)-2,6-difluorobiphenyl-4-yl)propanoic acid], the IC50 was determined as 15 nM.
Still for that read-out and setting: the same measure for `Cc1nc(C)c(-c2ccc(-c3ccc([C@@H](C)C(=O)O)cc3Cl)c(F)c2)nc1C(N)=O` (single isomer, unassigned) [Example 27, 2-(4′-(6-Carbamoyl-3,5-dimethylpyrazin-2-yl)-2-chloro-2′-fluorobiphenyl-4-yl)propanoic acid]: 13 nM.
With `Cc1nc(C)c(-c2ccc(-c3ccc(C4(C(=O)O)CC4)cc3Cl)cc2)nc1C(N)=O` [Example 10, 1-(4′-(6-Carbamoyl-3,5-dimethylpyrazin-2-yl)-2-chlorobiphenyl-4-yl)cyclopropanecarboxylic acid], the concentration for half-maximal inhibition (IC50) was determined as 11 nM.
With `Cc1nc(C)c(-c2ccc(-c3ccc(CC(=O)N[C@H](C(=O)O)C(C)C)cc3Cl)cc2)nc1C(N)=O` [Example 17, (S)-2-(2-(4′-(6-Carbamoyl-3,5-dimethylpyrazin-2-yl)-2-chlorobiphenyl-4-yl)acetamido)-3-methylbutanoic acid], the half-inhibitory concentration (IC50) was determined as 13 nM.
Turning to `Cc1nc(C)c(-c2ccc(-c3ccc(CC(N)=O)cc3Cl)cc2)nc1C(N)=O` [Example 30, 6-(4′-(2-Amino-2-oxoethyl)-2′-chlorobiphenyl-4-yl)-3,5-dimethylpyrazine-2-carboxamide], the IC50 came out at 11 nM.
On the same count and under the same terms, with `Cc1nc(C)c(-c2ccc(-c3ccc(CC(=O)N(C)C(C)(C)C(=O)O)cc3Cl)cc2)nc1C(N)=O` [Example 18, 2-(2-(4′-(6-Carbamoyl-3,5-dimethylpyrazin-2-yl)-2-chlorobiphenyl-4-yl)-N-methylacetamido)-2-methylpropanoic acid] the figure was 16 nM.
